Laboratory results from ChEMBL document CHEMBL4342519, “Triazolo-Peptidomimetics: Novel Radiolabeled Minigastrin Analogs for Improved Tumor Targeting” (J Med Chem, 2020).
Active and inactive are the calls of the source. No cut-off for these calls is given here. *1 amine or outer side, *2 acyl side, *3 side chain or, on linkers, in order; H or OH if unused. Where a SMILES comes first, the peptide text is derived from it. [ ]: non-standard residue; d: D form. The star is where a group is joined. X2 = CCCC[C@@H](C(=O)[*:2])n1cc([C@H](Cc2c[nH]c3ccccc23)N[*:1])nn1; X4 = C[C@H](N[*:1])c1cn([C@@H](Cc2ccc(O)cc2)C(=O)[*:2])nn1; DOTA = O=C(O)CN1CCN(CC(=O)O)CCN(CC(=O)*)CCN(CC(=O)O)CC1; X3 = O=C([C@H](Cc1c[nH]c2ccccc12)n1cc(CN[*:1])nn1)[*:2]; X5 = C[C@@H](C(=O)[*:2])n1cc([C@@H](CCC(=O)O)N[*:1])nn1; X1 = O=C(Cn1cc([C@H](Cc2ccc(O)cc2)N[*:1])nn1)[*:2]; Nle = CCCC[C@H](N)C(=O)O

How the values were obtained:
[1] = Lipophilicity, log D of compound in PBS buffer at 0.25 MBq and pH 7.4 using 177Lu labeled compound by shake-flask method; type: physicochemical
[2] = Drug uptake in tumor of CD1 nu/nu mouse xenografted with human A431 cells transfected with CCK2R at 0.5 MBq after 4 hrs using 177Lu labeled compound by Cobra-2 gamma counter method relative to control; type: ADME, tissue-based, Neoplasm
[3] = target: T1, Gastrin/cholecystokinin type B receptor (Homo sapiens) (UniProt P32239); assay: Binding affinity to CCK2R (unknown origin) expressed in human A431 cells assessed as receptor-mediated drug internalization at 5 kBq incubated up to 240 mins using 177Lu labeled compound by gamma counting method relative to control; type: cell-based
T1 sequence (whole entry): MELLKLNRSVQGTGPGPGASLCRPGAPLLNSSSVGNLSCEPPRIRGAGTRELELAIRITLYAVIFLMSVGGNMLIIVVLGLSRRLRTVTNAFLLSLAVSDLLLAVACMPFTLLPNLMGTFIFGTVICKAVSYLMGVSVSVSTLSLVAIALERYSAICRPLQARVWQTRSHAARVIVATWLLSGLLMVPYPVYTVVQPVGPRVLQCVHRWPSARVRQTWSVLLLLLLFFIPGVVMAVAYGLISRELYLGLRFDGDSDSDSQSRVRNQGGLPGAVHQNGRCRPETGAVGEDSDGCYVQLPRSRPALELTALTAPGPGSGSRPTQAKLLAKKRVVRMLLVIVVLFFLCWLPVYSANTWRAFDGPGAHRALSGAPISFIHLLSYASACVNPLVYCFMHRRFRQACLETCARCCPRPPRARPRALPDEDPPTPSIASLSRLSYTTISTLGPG

[4] = target: T2, Gastrin/cholecystokinin type B receptor (Homo sapiens, UniProt P32239); assay: Displacement of [177Lu] PP-F11N from CCK2R (unknown origin) transfected in A431 cells incubated for 1 hr at 4 degree C followed by compound washout with PBS buffer using Lu3+ labeled compound by Cobra-2 gamma counter method; type: cell-based
T2 sequence (P32239 whole entry): T1 sequence (whole entry)

[5] = Stability of compound in human plasma at 7.5 MBq assessed as intact compound measured after 24 hrs using 177Lu labeled compound by gamma-HPLC analysis; type: ADME, cell-free; details: for remaining at 24 h, 7.5 MBq: read-out: Stability; for Stability: 24 h
[6] = Half life in human plasma at 7.5 MBq measured up to 24 hrs at 37 degree C using 177Lu labeled compound by gamma-HPLC analysis; type: ADME, cell-free
[7] = target: T1, Gastrin/cholecystokinin type B receptor (Homo sapiens); assay: Binding affinity to CCK2R (unknown origin) expressed in human A431 cells assessed as receptor-mediated drug internalization at 5 kBq incubated 4 hrs using 177Lu labeled compound by gamma counting method relative to control; type: cell-based
[8] = target: T1, Gastrin/cholecystokinin type B receptor (Homo sapiens); assay: Potency index, ratio of [Nle15]MG11 IC50 to test compound IC50 for displacement of [177Lu] PP-F11N from CCK2R (unknown origin) transfected in A431 cells incubated for 1 hr at 4 degree C followed by compound washout with PBS buffer using Lu3+ labeled compound by Cobra-2 gamma counter method; type: cell-based
[9] = Drug uptake in tumor of CD1 nu/nu mouse xenografted with human A431 cells transfected with CCK2R at 0.5 MBq after 1 hr using 177Lu labeled compound by Cobra-2 gamma counter method; type: ADME, tissue-based, Neoplasm
[10] = Ratio of drug uptake in tumor to kidney in CD1 nu/nu mouse xenografted with human A431 cells transfected with CCK2R at 0.5 MBq after 4 hrs using 177Lu labeled compound by Cobra-2 gamma counter method; type: ADME, tissue-based
[11] = Drug uptake in tumor of CD1 nu/nu mouse xenografted with human A431 cells transfected with CCK2R at 0.5 MBq after 24 hrs using 177Lu labeled compound by Cobra-2 gamma counter method relative to control; type: ADME, tissue-based, Neoplasm
[12] = Drug recovery in tumor of CD1 nu/nu mouse xenografted with human A431 cells transfected with CCK2R at 0.5 MBq after 24 hrs using 177Lu labeled compound by Cobra-2 gamma counter method relative to control; type: ADME, tissue-based, Neoplasm
[13] = Ratio of half life of compound to [Nle15]MG11 in human plasma at 7.5 MBq measured up to 24 hrs at 37 degree C using 177Lu labeled compound by gamma-HPLC analysis; type: ADME, cell-free
[14] = Drug uptake in tumor of CD1 nu/nu mouse xenografted with human A431 cells transfected with CCK2R at 0.5 MBq, iv after 4 hrs using 177Lu labeled compound by Cobra-2 gamma counter method relative to [Nle15]MG11; type: ADME, organism-based, Neoplasm; details: in vivo
[15] = target: T1, Gastrin/cholecystokinin type B receptor (Homo sapiens); assay: Binding affinity to CCK2R (unknown origin) expressed in human A431 cells assessed as receptor-mediated drug internalization at 5 kBq incubated 2 to 4 hrs using 177Lu labeled compound by gamma counting method relative to control; type: cell-based

SMILES | logD ([1]; PBS buffer, read-out: logD) | Drug uptake [2] | Drug uptake [3] | IC50 [4] | remaining at 24 h, 7.5 MBq [5] | half-life at 7.5 MBq [6] | Drug uptake [7] | Ratio IC50 [8] | Drug uptake [9] | Ratio [10] | Drug uptake [11] | Drug recovery [12] | Ratio [13] | Stability [5] | logD ([1]; buffer) | Ratio [14] | fold change (FC) [15]
CCCC[C@H](NC(=O)[C@H](Cc1c[nH]c2ccccc12)NC(=O)CNC(=O)[C@H](Cc1ccc(O)cc1)NC(=O)[C@H](C)NC(=O)[C@@H](CCC(=O)O)NC(=O)CN1CCN(CC(=O)O)CCN(CC(=O)O)CCN(CC(=O)O)CC1)c1cn([C@@H](CC(=O)O)C(=O)N[C@@H](Cc2ccccc2)C(N)=O)nn1 | -3.75 | Active | 0.2% | > 50000 nM | > 50% | 114 h | – | – | – | – | – | – | – | – | – | – | –
CCCC[C@H](NC(=O)[C@H](Cc1c[nH]c2ccccc12)NC(=O)CNC(=O)C[C@H](Cc1ccc(O)cc1)NC(=O)[C@H](C)NC(=O)[C@@H](CCC(=O)O)NC(=O)CN1CCN(CC(=O)O)CCN(CC(=O)O)CCN(CC(=O)O)CC1)C(=O)N[C@@H](CC(=O)O)C(=O)N[C@@H](Cc1ccccc1)C(N)=O | -3.83 | – | 37.4% | 25.8 nM | – | 4.7 h | – | – | – | – | – | – | – | – | – | – | –
CCCC[C@H](NC(=O)[C@H](Cc1c[nH]c2ccccc12)NC(=O)CCNC(=O)[C@H](Cc1ccc(O)cc1)NC(=O)[C@H](C)NC(=O)[C@@H](CCC(=O)O)NC(=O)CN1CCN(CC(=O)O)CCN(CC(=O)O)CCN(CC(=O)O)CC1)C(=O)N[C@@H](CC(=O)O)C(=O)N[C@@H](Cc1ccccc1)C(N)=O | -3.73 | – | 44.5% | 18.8 nM | – | 8.5 h | – | – | – | – | – | – | – | – | – | – | –
CCCC[C@H](NC(=O)[C@H](Cc1c[nH]c2ccccc12)NC(=O)CNC(=O)[C@H](Cc1ccc(O)cc1)NC(=O)[C@H](C)NC(=O)[C@@H](CCC(=O)O)NC(=O)CN1CCN(CC(=O)O)CCN(CC(=O)O)CCN(CC(=O)O)CC1)C(=O)N[C@@H](CC(=O)O)c1cn([C@@H](Cc2ccccc2)C(N)=O)nn1 | -3.95 | – | 0.1% | > 50000 nM | > 50% | 35.9 h | – | – | – | – | – | – | – | – | – | – | –
CCCC[C@H](NC(=O)[C@H](Cc1c[nH]c2ccccc12)NC(=O)CNC(=O)[C@H](Cc1ccc(O)cc1)NC(=O)[C@H](C)NC(=O)[C@@H](CCC(=O)O)NC(=O)CN1CCN(CC(=O)O)CCN(CC(=O)O)CCN(CC(=O)O)CC1)C(=O)N[C@@H](CC(=O)O)C(=O)N[C@@H](Cc1ccccc1)C(N)=O ({DOTA}-[dE]AYGW[Nle]DF-NH2) | -3.86 | 1.48 % ID/g | 32.2% | 15.4 nM | – | 3.9 h | 11.7% | – | Active | 1.83 | < 0.9 % ID/g | 34% | – | – | – | – | –
CCCC[C@@H](C(=O)N[C@@H](CC(=O)O)C(=O)N[C@@H](Cc1ccccc1)C(N)=O)n1cc([C@H](Cc2c[nH]c3ccccc23)NC(=O)CNC(=O)[C@H](Cc2ccc(O)cc2)NC(=O)[C@H](C)NC(=O)[C@@H](CCC(=O)O)NC(=O)CN2CCN(CC(=O)O)CCN(CC(=O)O)CCN(CC(=O)O)CC2)nn1 ({DOTA}-[dE]AYG[X2]DF-NH2) | -3.98 | Active | 33.1% | 25.4 nM | > 50% | 350 h | Active | – | – | – | – | – | 90 | – | – | – | –
CCCC[C@H](NC(=O)[C@H](Cc1c[nH]c2ccccc12)n1cc(CNC(=O)[C@H](Cc2ccc(O)cc2)NC(=O)[C@H](C)NC(=O)[C@@H](CCC(=O)O)NC(=O)CN2CCN(CC(=O)O)CCN(CC(=O)O)CCN(CC(=O)O)CC2)nn1)C(=O)N[C@@H](CC(=O)O)C(=O)N[C@@H](Cc1ccccc1)C(N)=O ({DOTA}-[dE]AY[X3][Nle]DF-NH2) | -4 | Active | 41.7% | 15.6 nM | – | 3.8 h | Active | – | – | – | – | – | – | Unstable | – | – | –
CCCC[C@H](NC(=O)[C@H](Cc1c[nH]c2ccccc12)NC(=O)CNC(=O)[C@H](Cc1ccc(O)cc1)n1cc([C@H](C)NC(=O)[C@@H](CCC(=O)O)NC(=O)CN2CCN(CC(=O)O)CCN(CC(=O)O)CCN(CC(=O)O)CC2)nn1)C(=O)N[C@@H](CC(=O)O)C(=O)N[C@@H](Cc1ccccc1)C(N)=O ({DOTA}-[dE][X4]GW[Nle]DF-NH2) | -3.9 | Active | 29.6% | 20.9 nM | > 50% | 51.4 h | Active | – | – | – | – | – | – | – | – | – | –

The remaining molecules from weak to strong by IC50 [4], led by results:

logD ([1]; PBS buffer, read-out: logD) | Drug uptake [2] | Drug uptake [3] | IC50 [4] | remaining at 24 h, 7.5 MBq [5] | half-life at 7.5 MBq [6] | Drug uptake [7] | Ratio IC50 [8] | Drug uptake [9] | Ratio [10] | Drug uptake [11] | Drug recovery [12] | Ratio [13] | Stability [5] | logD ([1]; buffer) | Ratio [14] | fold change (FC) [15] | SMILES
-3.69 | – | 2.5% | 200 nM | > 50% | 34.9 h | – | – | – | – | – | – | – | – | – | – | – | CCCC[C@H](NC(=O)[C@H](Cc1c[nH]c2ccccc12)NC(=O)CNC(=O)[C@H](Cc1ccc(O)cc1)NC(=O)[C@H](C)NC(=O)[C@@H](CCC(=O)O)NC(=O)CN1CCN(CC(=O)O)CCN(CC(=O)O)CCN(CC(=O)O)CC1)C(=O)N[C@@H](CC(=O)O)C(=O)N[C@@H](Cc1ccccc1)c1c[nH]nn1
-3.98 | Active | 39.6% | 8 nM | – | 7.7 h | Active | 2 | – | – | – | – | – | – | – | – | – | CCCC[C@H](NC(=O)[C@H](Cc1c[nH]c2ccccc12)NC(=O)CNC(=O)[C@H](Cc1ccc(O)cc1)NC(=O)[C@H](C)n1cc([C@@H](CCC(=O)O)NC(=O)CN2CCN(CC(=O)O)CCN(CC(=O)O)CCN(CC(=O)O)CC2)nn1)C(=O)N[C@@H](CC(=O)O)C(=O)N[C@@H](Cc1ccccc1)C(N)=O ({DOTA}-[X5]YGW[Nle]DF-NH2)
– | 3.91 % ID/g | 54.3% | 1.7 nM | – | 2.6 h | 31% | 10 | Active | 5.81 | Active | 75% | – | Unstable | -4.06 | 2.6 | 2 | CCCC[C@H](NC(=O)[C@H](Cc1c[nH]c2ccccc12)NC(=O)Cn1cc([C@H](Cc2ccc(O)cc2)NC(=O)[C@H](C)NC(=O)[C@@H](CCC(=O)O)NC(=O)CN2CCN(CC(=O)O)CCN(CC(=O)O)CCN(CC(=O)O)CC2)nn1)C(=O)N[C@@H](CC(=O)O)C(=O)N[C@@H](Cc1ccccc1)C(N)=O ({DOTA}-[dE]A[X1]W[Nle]DF-NH2)
